According to US8653304B2, “2,3-dihydro-1H-indene-2-yl urea derivative and pharmaceutical application of same” (Toray Industries, Inc., priority 2009, dated 2014):

Columns and labels:
[1] = target: human p38 MAPK α (Homo sapiens (Human), UniProt Q16539); assay: Evaluation of p38 MAPK inhibitory activity (Alpha Screen, ATF2 phosphorylation); assay type: biochemical; conditions: p38α/SAPK2a 1.5 nM, ATP 100 μM, biotinylated ATF2 30 nM
Procedure: Using human p38 MAPK α, the p38 MAPK inhibitory activity of Compound (I) was studied by a method partially modified from the method described in Current Medicinal Chemistry (2004, No. 11, pp. 721-730).
A solution of each test compound solution in 100% DMSO and a p38α/SAPK2a solution (Final Concentration: 1.5 nM) (Invitrogen) were added to a 384-well plate, and then the plate was incubated at room temperature in a dark place for 1 hour. Thereafter, ATP (Final Concentration: 100 μM), which is a phosphate donor, and biotinylated ATF2 (Final Concentration: 30 nM) (upstate), which is a substrate, were added, and the resulting mixture was allowed to react at room temperature in a dark place for 1 hour (the final concentration of DMSO was 0.25%). After the reaction, an anti-phosphorylated ATF2 antibody (Final Concentration: 1 nM) (Cell Signaling), anti-IgG acceptor beads (Final Concentration: 20 μg/mL) (PerkinElmer) and streptavidin donor beads (Final Concentration: 20 μg/mL) (PerkinElmer) were added, and the resultant was incubated at room temperature in a dark place for 1 hour. Using a microplate analyzer (Fusion-α, Packard) in Alpha Screen method (Amplified Luminescent Proximity Homogeneous Assay), the light emission was detected. The IC50 value of each compound was calculated by sigmoidal dose-response regression using Prism 4.02 (GraphPad Software, Inc.).

[2] = Pharmacokinetic evaluation in mouse (oral); assay type: in vivo; conditions: male; BALB/c mouse, oral 0.8 mg/kg, plasma
Procedure: Each test compound was dissolved in 10% HP-β-CD (Nihon Shokuhin Kako Co., Ltd.) to prepare a solution to be administered (0.08 mg/mL, as a solution to be administered for oral administration). To each BALB/c mouse (male, 7-week old, Charles River Laboratories Japan, Inc.), each compound was orally administered at a dose of 0.8 mg/kg. Blood was collected from the jugular vein or heart with time up to 24 hours after the administration. The obtained blood was centrifuged to collect blood plasma. The blood plasma was pretreated by methanol extraction method, and the concentration of the compound was analyzed by LC/MS/MS (ESI positive mode).
In this table, Cmax represents a maximum plasma concentration; and AUC0-∞ represents an area under the curve of the plasma concentration of the compound from after the compound administration to infinite time.

[3] = Metabolic stability in human CYP (human liver microsomes); assay type: in vitro ADME; conditions: human liver microsomes 0.5 mg/mL, NADPH, 37° C., compound 2 μM
Procedure: Each test compound was mixed at a concentration of 2 μM with a phosphate buffer solution containing Human liver microsomes (Xenotech) in an amount of 0.5 mg/mL. Thereafter, NADPH was added thereto, and the obtained mixture was allowed to react at 37° C. for up to 30 minutes. The reaction was terminated by adding acetonitrile, and then the resultant was centrifuged for 10 minutes at 4° C. to collect a supernatant. The supernatant was pretreated by methanol extraction method, and the concentration of the compound was analyzed by LC/MS/MS (ESI positive mode). The compound remaining rate was calculated from the obtained concentration of the compound.

[4] = tested on: hyperalgesia in carrageenin paw edema pain model; assay: Hyperalgesia in inflammatory pain model (carrageenin paw edema pain model); assay type: in vivo; conditions: SD rat, oral 100 mg/kg 30 minutes before carrageenin, measured 90 minutes after carrageenin; FIG. 1
From the text: (§1) The action of Compound (I) on hyperalgesia in pain models was studied. As the pain models, models partially modified from an inflammatory pain model (a carrageenin paw edema pain model) and neuropathic pain models (Bennett model and Chung model) described in documents (Anesth. Analg., 2009, Vol. 108, pp. 1680-1687; Pain, 1988, Vol. 33, pp. 87-107; and Pain, 1992, Vol. 50, pp. 355-363) were used.
To the footpad of the left hind limb of each Crl:CD (SD) rat (male, 6-week old, Charles River Laboratories Japan, Inc.), an 1 w/v % suspension of carrageenin (Zushi Kagaku Laboratory, Inc.) in physiological saline was subcutaneously administered at 0.1 mL/body to produce the carrageenin paw edema pain model. Ninety minutes after the administration of the 1 w/v % suspension of carrageenin in physiological saline, the pain threshold (mmHg) of the footpad of the left hind limb was measured using Analgesy Meter (TK-201, Unicom) wherein the stimulating pressure was set so as to rise from 0 mmHg to 100 mmHg for 10 seconds. Each test compound was suspended in 0.5 w/v % methylcellulose (Wako Pure Chemical Industries, Ltd.), and the obtained solution was orally administered 30 minutes before the administration of the 1 w/v % suspension of carrageenin in physiological saline. […]

[5] = tested on: hyperalgesia in Bennett model; assay: Hyperalgesia in neuropathic pain model (Bennett model), plantar test; assay type: in vivo; conditions: SD rat, Bennett model day 14, oral 100 mg/kg, 90 minutes after administration; FIG. 2
From the text: as §1
The Bennett model was produced by lightly ligating the sciatic nerve in the left thigh of each Crl:CD (SD) rat (male, 6-week old, Charles River Laboratories Japan, Inc.) at 4 points with chromic catgut (4-0). Fourteen days after the Bennett model was produced, each test compound was orally administered, and plantar test was performed 90 minutes after the administration. The plantar test was carried out by measuring the pain threshold (sec) of the left footpad (model foot) using a plantar thermal stimulation device (Plantar test 7370, Ugo Basile) wherein the thermal stimulus intensity was set to 60. Each test compound was suspended in 0.5 w/v % methylcellulose (Wako Pure Chemical Industries, Ltd.) and the obtained solution was orally administered. Compound 46b described in the Examples was administered at a dose of 100 mg/kg, and gabapentin (Toronto Research Chemicals), which is an anticonvulsant, was administered as a comparative control agent at a dose of 100 mg/kg.

Sequence of human p38 MAPK α (Q16539 whole entry): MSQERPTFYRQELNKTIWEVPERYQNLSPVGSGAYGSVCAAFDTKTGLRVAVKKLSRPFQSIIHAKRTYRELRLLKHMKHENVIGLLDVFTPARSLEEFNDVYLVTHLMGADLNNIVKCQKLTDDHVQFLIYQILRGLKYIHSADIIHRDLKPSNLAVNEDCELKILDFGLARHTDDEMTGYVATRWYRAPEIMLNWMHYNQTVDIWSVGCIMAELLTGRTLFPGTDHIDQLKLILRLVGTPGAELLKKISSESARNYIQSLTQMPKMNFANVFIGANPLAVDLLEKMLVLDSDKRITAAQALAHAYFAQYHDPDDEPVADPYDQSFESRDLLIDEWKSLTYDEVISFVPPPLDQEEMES

IC50 [1]: 15 nM | AUC(0-inf) [2]: 588 ng·h/mL | Cmax [2]: 561 ng/mL | microsomal CLint at 2 μM [3]: 94 µL/min/mg
Compound: COc1c(NC(=O)N[C@@H]2Cc3ccccc3[C@@H]2O)cc(C(C)(C)C)cc1[C@@H](O)C(F)(F)F [Compound 46b, 1-(5-tert-butyl-2-methoxy-3-((R)-2,2,2-trifluoro-1-hydroxyethyl)phenyl)-3-((1S,2R)-1-hydroxy-2,3-dihydro-1H-indene-2-yl)urea]
pain threshold (mmHg) compared to solvent-administered group [4]: significantly elevated | pain threshold (sec), plantar test, compared to solvent-administered group [5]: significantly elevated
